Reference: patent US20240278234A1, “SAMPLE PREPARATION” (priority 2021, published 2024)

System: SARS-CoV-2 target genes E gene, RdRP gene and human RP (positive control)
Test: RT-qPCR amplification (YouSeq E-RdRP kit) in the presence of lysis agents: test for PCR inhibition
Assay type: biochemical
Conditions: for qPCR amplification curves, FIG. 4: 2%-0.2% agent; for qPCR amplification curves, FIG. 5: 0.2% and 0.06% agent; for inhibition of amplification (summary of FIGS. 4 and 5): agents tested at 2%, 0.6%, 0.2% and 0.02%, 45 cycles
Experimental: An E-RdRP kit from YouSeq was used, which is designed to detect SARS-CoV-2, and includes a positive control containing the SARS-CoV-2 target genes E gene, RdRP gene and human RP (as an internal control). Each reaction included: • 10 μL MasterMix • 1 μL Primer/Probe • 3 μL Water • 1 μL Template or Water • 5 μL Buffers
PCR was carried out under the following conditions: • 55 C for 10 mins RT Step • 95 C for 3 mins denaturation • x45 Cycles • 95 C for 15 secs • 60 C for 60 secs
Amplification was monitored using a Quantstudio Q5.

Row | SMILES | qPCR amplification curves, FIG. 4 | qPCR amplification curves, FIG. 5 | inhibition of amplification (summary of FIGS. 4 and 5)
1 | [H]/N=C(\N/C(=N/[H])NCCCCCCNC(=N)NC(=N)Nc1ccc(Cl)cc1)Nc1ccc(Cl)cc1 [chlorhexidine] | Clear PCR inhibitions | no significant inhibition | inhibit at higher concentrations
2 | CC(C)=CCCC(C)=CC=O [citral] | clear inhibitory effect between 2%-0.2% | no significant inhibition | inhibit at higher concentrations
